Assay [1] addresses Tyrosine-protein kinase ABL1 (Homo sapiens) (UniProt P00519). The experiment in a line: Inhibition of purified Abl (unknown origin) at 1 uM after 60 mins by ELISA kinase assay.
Assay [2] has as its target Receptor-type tyrosine-protein kinase FLT3 (Homo sapiens) (UniProt P36888). The experiment in a line: Inhibition of purified Flt-3 (unknown origin) at 1 uM after 60 mins by ELISA kinase assay. (In general: ELISA stands for enzyme-linked immunosorbent assay.)
For assay [3], the target named is Proto-oncogene tyrosine-protein kinase receptor Ret (Homo sapiens) (UniProt P07949). The experiment in a line: Inhibition of purified RET (unknown origin) at 1 uM after 60 mins by ELISA kinase assay.
For assay [4], the target named is Receptor tyrosine-protein kinase erbB-4 (Homo sapiens) (UniProt Q15303). The experiment in a line: Inhibition of purified ErbB4 (unknown origin) at 1 uM after 60 mins by ELISA kinase assay.
For assay [5], the target named is T1, ALK tyrosine kinase receptor (Homo sapiens, UniProt Q9UM73). The experiment in a line: Inhibition of purified ALK (unknown origin) after 60 mins by ELISA kinase assay.
Target sequence in this assay (Q9UM73 whole entry): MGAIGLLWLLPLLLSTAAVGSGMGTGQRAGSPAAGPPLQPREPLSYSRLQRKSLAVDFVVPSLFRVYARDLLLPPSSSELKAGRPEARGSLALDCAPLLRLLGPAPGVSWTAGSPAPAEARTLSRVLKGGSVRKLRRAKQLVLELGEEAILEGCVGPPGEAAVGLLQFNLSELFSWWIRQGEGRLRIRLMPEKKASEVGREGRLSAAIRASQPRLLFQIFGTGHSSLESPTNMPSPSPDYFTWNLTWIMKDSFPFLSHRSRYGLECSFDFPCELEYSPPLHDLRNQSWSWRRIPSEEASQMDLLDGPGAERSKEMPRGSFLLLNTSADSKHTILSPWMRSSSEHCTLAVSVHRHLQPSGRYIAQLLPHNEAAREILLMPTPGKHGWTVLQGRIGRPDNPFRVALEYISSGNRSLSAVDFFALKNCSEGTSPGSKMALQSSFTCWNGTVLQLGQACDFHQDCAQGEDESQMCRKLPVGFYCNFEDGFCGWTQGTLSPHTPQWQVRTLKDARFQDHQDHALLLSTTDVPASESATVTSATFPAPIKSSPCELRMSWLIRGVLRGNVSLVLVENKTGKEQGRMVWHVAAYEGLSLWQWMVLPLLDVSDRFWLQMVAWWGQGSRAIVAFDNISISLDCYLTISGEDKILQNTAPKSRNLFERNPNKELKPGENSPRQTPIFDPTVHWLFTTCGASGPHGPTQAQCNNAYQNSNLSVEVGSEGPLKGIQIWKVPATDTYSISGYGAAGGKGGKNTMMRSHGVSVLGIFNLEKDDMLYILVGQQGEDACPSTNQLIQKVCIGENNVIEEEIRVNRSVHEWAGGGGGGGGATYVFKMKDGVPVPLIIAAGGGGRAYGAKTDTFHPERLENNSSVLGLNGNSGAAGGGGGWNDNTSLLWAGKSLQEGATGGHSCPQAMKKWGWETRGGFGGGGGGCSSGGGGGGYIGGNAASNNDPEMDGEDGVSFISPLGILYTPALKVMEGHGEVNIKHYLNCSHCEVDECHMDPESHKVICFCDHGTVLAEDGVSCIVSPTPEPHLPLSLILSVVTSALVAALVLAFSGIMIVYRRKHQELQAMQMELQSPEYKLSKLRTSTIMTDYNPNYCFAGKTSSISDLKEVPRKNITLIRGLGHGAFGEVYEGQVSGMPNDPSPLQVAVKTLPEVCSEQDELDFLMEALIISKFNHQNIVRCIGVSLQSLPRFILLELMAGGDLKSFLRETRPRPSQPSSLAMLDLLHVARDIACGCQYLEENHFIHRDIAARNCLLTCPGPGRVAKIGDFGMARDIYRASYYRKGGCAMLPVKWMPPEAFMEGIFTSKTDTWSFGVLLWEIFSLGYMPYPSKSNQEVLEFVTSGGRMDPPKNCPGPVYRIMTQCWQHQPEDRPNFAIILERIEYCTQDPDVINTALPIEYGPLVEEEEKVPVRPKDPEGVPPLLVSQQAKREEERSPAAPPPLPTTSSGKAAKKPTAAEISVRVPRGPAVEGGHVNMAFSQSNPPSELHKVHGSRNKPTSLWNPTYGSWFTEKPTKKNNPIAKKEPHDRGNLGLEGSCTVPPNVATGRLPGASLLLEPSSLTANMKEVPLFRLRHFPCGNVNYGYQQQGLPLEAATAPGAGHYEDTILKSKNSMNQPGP
Assay [6] has as its target Insulin-like growth factor 1 receptor (Homo sapiens) (UniProt P08069). The experiment in a line: Inhibition of purified IGF1R (unknown origin) at 1 uM after 60 mins by ELISA kinase assay.
For assay [7], the target named is T1, ALK tyrosine kinase receptor. Conditions: 1 uM.
Target sequence in this assay (Q9UM73 19-1620 limits assumed): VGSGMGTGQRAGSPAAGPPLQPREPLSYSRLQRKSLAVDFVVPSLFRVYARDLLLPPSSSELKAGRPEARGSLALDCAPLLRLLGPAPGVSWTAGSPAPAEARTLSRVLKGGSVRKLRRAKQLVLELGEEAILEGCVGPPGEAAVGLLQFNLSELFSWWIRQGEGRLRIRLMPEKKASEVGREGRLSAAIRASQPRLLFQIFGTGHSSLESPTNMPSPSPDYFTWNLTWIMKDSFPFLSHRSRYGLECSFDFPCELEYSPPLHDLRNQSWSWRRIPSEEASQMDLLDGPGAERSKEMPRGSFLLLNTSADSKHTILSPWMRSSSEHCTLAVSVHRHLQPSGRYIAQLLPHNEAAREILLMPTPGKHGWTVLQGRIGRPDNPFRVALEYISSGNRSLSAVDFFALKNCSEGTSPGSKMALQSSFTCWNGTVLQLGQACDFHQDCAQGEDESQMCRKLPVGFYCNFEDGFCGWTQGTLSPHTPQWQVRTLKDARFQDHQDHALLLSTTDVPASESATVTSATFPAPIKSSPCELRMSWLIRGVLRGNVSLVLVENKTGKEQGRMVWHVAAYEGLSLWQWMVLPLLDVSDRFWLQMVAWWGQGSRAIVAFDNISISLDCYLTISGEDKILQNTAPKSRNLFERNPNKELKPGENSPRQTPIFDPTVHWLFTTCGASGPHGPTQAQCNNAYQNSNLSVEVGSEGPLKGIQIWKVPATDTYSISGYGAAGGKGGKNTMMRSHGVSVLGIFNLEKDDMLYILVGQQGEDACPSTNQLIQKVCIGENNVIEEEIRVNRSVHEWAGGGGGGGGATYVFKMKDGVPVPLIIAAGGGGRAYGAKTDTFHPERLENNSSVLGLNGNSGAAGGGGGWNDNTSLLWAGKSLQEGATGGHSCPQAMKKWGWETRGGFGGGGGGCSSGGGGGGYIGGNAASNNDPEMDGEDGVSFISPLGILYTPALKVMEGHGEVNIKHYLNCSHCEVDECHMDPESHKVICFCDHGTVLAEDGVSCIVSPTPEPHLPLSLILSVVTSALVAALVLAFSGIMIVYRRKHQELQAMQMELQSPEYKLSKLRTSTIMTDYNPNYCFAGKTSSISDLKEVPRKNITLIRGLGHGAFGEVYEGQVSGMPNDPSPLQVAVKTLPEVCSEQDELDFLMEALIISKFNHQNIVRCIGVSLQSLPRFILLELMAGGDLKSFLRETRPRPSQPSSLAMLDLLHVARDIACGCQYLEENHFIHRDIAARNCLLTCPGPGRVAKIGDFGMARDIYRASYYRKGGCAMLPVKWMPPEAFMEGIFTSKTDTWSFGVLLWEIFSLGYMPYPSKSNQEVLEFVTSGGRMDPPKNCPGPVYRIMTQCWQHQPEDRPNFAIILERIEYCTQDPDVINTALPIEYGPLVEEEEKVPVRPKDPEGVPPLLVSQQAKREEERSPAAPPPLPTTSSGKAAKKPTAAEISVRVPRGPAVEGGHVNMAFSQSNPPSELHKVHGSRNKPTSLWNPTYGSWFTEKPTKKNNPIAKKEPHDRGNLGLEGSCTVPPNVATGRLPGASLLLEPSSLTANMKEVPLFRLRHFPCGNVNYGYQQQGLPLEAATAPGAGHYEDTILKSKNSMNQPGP
Description: Inhibition of purified ALK (unknown origin) at 1 uM after 60 mins by ELISA kinase assay
Assay [8] has as its target Ephrin type-A receptor 2 (Homo sapiens) (UniProt P29317). The experiment in a line: Inhibition of purified EPH-A2 (unknown origin) at 1 uM after 60 mins by ELISA kinase assay.
Assay [9] addresses Proto-oncogene tyrosine-protein kinase Src (Homo sapiens) (UniProt P12931). The experiment in a line: Inhibition of purified c-Src (unknown origin) at 1 uM after 60 mins by ELISA kinase assay.
The target of assay [10] is T2, Hepatocyte growth factor receptor (Homo sapiens, UniProt P08581). The experiment in a line: Inhibition of purified c-MET (unknown origin) after 60 mins by ELISA kinase assay.
The target in assay [11] is Vascular endothelial growth factor receptor 1 (Homo sapiens) (UniProt P17948). The experiment in a line: Inhibition of purified Flt-1 (unknown origin) at 1 uM after 60 mins by ELISA kinase assay.
The target of assay [12] is T2, Hepatocyte growth factor receptor. The experiment in a line: Inhibition of purified c-MET (unknown origin) at 1 uM after 60 mins by ELISA kinase assay.
Assay [13] can be described thus: Antiproliferative activity against human SUP-M2 cells assessed as growth inhibition at 200 nM after 72 hrs by SRB assay. Conditions: SUP-M2, 72 h, read-out: GI. It is filed as functional. On the technique in general: In SRB staining, fixed cells bind dye roughly in proportion to their protein.
Assay [14] in a line: Antiproliferative activity against human SUP-M2 cells assessed as growth inhibition at 1000 nM after 72 hrs by SRB assay. The assay is classed as functional. Conditions: SUP-M2, 72 h, read-out: GI.
Assay [15] concerns the target T1, ALK tyrosine kinase receptor. The experiment in a line: Inhibition of ALK-mediated AKT phosphorylation in human H3122 cells. It is filed as cell-based.
Target sequence in this assay (Q9UM73 19-1620 limits assumed): as above
Assay [16] concerns the target Vascular endothelial growth factor receptor 2 (Homo sapiens) (UniProt P35968). The experiment in a line: Inhibition of purified KDR (unknown origin) at 1 uM after 60 mins by ELISA kinase assay.
In assay [17] the target is Fibroblast growth factor receptor 1 (Homo sapiens) (UniProt P11362). The experiment in a line: Inhibition of purified FGFR1 (unknown origin) at 1 uM after 60 mins by ELISA kinase assay.
In assay [18] the target is Vascular endothelial growth factor receptor 2 (Homo sapiens) (UniProt P35968). The experiment in a line: Inhibition of purified KDR (unknown origin) at 0.1 uM after 60 mins by ELISA kinase assay.
Assay [19] has as its target Platelet-derived growth factor receptor beta (Homo sapiens) (UniProt P09619). The experiment in a line: Inhibition of purified PDGFRbeta (unknown origin) at 1 uM after 60 mins by ELISA kinase assay.
For assay [20], the target named is Fibroblast growth factor receptor 1 (Homo sapiens) (UniProt P11362). The experiment in a line: Inhibition of purified FGFR1 (unknown origin) at 0.1 uM after 60 mins by ELISA kinase assay.
Assay [21] addresses Platelet-derived growth factor receptor alpha (Homo sapiens) (UniProt P16234). The experiment in a line: Inhibition of purified PDGFRalpha (unknown origin) at 1 uM after 60 mins by ELISA kinase assay.
Assay [22] addresses Insulin-like growth factor 1 receptor (Homo sapiens) (UniProt P08069). The experiment in a line: Inhibition of purified IGF1R (unknown origin) at 0.1 uM after 60 mins by ELISA kinase assay.
Assay [23] deals with Epidermal growth factor receptor (Homo sapiens) (UniProt P00533). The experiment in a line: Inhibition of purified EGFR (unknown origin) at 1 uM after 60 mins by ELISA kinase assay.
For assay [24], the target named is T1, ALK tyrosine kinase receptor. The experiment in a line: Inhibition of ALK-mediated STAT3 phosphorylation in human H3122 cells. The assay is classed as cell-based.
Target sequence in this assay (Q9UM73 19-1620 limits assumed): as above
The target in assay [25] is Receptor tyrosine-protein kinase erbB-2 (Homo sapiens) (UniProt P04626). The experiment in a line: Inhibition of purified ErbB2 (unknown origin) at 1 uM after 60 mins by ELISA kinase assay.
In assay [26] the target is T1, ALK tyrosine kinase receptor. The experiment in a line: Inhibition of ALK phosphorylation in human H3122 cells. The assay is classed as cell-based.
Target sequence in this assay (Q9UM73 19-1620 limits assumed): as above
Assay [27] has the same target. The experiment in a line: Inhibition of ALK-mediated ERK phosphorylation in human H3122 cells. It is filed as cell-based.
Target sequence in this assay (Q9UM73 19-1620 limits assumed): as above
In assay [28] the target is ALK tyrosine kinase receptor (Homo sapiens, UniProt Q9UM73, L1196M). The experiment in a line: Inhibition of purified ALK L1196M mutant (unknown origin) after 60 mins by ELISA kinase assay.
ALK tyrosine kinase receptor (Homo sapiens, UniProt Q9UM73, L1196M), sequence (Q9UM73 19-1620 L1196M limits assumed): as the sequence (Q9UM73 19-1620 limits assumed) above, with L1178M counted along it

T2 sequence (P08581 whole entry): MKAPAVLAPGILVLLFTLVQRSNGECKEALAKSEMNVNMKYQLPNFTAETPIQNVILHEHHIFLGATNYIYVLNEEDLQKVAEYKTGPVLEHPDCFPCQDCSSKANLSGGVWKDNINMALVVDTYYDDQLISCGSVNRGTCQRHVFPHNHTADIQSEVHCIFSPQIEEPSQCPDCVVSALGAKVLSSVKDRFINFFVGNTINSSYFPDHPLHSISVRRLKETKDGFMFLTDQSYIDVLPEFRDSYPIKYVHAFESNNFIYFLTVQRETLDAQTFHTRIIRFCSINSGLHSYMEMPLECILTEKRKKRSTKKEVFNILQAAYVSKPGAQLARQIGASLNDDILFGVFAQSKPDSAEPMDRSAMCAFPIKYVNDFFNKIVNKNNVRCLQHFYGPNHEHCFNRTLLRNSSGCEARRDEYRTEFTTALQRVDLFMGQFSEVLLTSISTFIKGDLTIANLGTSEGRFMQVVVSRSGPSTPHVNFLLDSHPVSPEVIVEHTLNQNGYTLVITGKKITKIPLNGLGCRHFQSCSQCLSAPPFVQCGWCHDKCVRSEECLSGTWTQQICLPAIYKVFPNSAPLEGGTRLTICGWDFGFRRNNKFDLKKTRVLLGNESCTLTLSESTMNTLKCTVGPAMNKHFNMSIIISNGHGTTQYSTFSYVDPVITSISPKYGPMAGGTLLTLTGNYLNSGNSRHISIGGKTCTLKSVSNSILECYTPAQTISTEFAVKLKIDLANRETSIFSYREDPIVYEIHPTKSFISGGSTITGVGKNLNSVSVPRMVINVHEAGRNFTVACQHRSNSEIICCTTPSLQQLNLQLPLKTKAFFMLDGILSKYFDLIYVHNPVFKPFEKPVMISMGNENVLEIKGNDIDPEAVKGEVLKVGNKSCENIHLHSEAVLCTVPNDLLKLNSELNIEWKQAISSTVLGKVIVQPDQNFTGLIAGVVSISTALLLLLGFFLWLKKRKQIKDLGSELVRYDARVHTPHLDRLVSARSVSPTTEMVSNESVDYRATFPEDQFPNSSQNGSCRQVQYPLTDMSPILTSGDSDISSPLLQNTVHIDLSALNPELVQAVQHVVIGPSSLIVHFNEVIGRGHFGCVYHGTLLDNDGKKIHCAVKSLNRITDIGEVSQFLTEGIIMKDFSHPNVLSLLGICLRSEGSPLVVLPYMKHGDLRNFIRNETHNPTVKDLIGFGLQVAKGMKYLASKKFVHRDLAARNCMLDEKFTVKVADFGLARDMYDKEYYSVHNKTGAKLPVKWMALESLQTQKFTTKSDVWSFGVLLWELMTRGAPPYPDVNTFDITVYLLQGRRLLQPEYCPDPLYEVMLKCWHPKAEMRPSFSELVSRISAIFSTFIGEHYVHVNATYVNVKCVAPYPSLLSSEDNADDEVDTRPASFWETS

Regarding `CNC(=O)c1ccccc1Nc1nc(Nc2nc3c(s2)CCNCC3)ncc1Cl`, the inhibition (as a rule, how much of the control response was suppressed) amounted to 73.9% in assay [1]; 20.5% in [2]; 81.5% in assay [3]; 60.1% in [4]; 5.7% in assay [6]; 96% in assay [7]. Moreover, the inhibition in [8] turned out to be 63.2%; in assay [9] it was 20.7%; in assay [11] it was 16.3%; in assay [12], 96%. Further, the IC50 (commonly the concentration at which inhibition is half-maximal) in assay [5] was found to be 61.8 nM; in assay [10], 20 nM.
Regarding `CCOC(=O)c1csc(Nc2ncc(Cl)c(Nc3ccccc3S(=O)(=O)C(C)C)n2)n1`, the IC50 in assay [5] is more than 1000 nM.
As to `CC(C)S(=O)(=O)c1ccccc1Nc1nc(Nc2ncc(C(=O)N3C[C@H]4CN(C)C[C@H]4C3)s2)ncc1Cl`, the IC50 in assay [5] is more than 1000 nM.
As for `CC(C)S(=O)(=O)c1ccccc1Nc1nc(Nc2nc3c(s2)CCN(CCN2CCOCC2)CC3)ncc1Cl`, the inhibition of growth at 0.2 µM in assay [13] is 19.8%. In assay [14], the inhibition of growth at 1 µM is 83.5%.
For the molecule `CC(C)S(=O)(=O)c1ccccc1Nc1nc(Nc2nc3c(s2)CCN(C(=O)C2CCOCC2)CC3)ncc1Cl`, the inhibition in [1] is 45.6%; in assay [15] it was “Dose-dependent effect”; in [3] it was 77%; in assay [16], 53.5%; in assay [17], 100%; in assay [4], 33.4%. Besides, the inhibition in assay [6] was determined as 52.8%; in assay [18] it was 40.6%; in assay [19] it was 5.6%; in [20] it was 69.2%; in assay [8] it was 23%; in [21], 18%. Also, the inhibition was 15.8% in assay [22]; 51.3% in [9]; 15.8% in [23]; “Dose-dependent effect” in assay [24]; 0% in assay [25]; “Dose-dependent effect” in assay [26]. The figures for the inhibition in assay [11], in [27] and in [12] were 0%, “Dose-dependent effect” and 4.9%, respectively. Further, the IC50 in [5] is 12.4 nM; in assay [28], 24 nM. The inhibition of growth at 0.2 µM in assay [13] amounted to 23.2%. Moreover, the inhibition of growth at 1 µM in [14] stood at 84.1%.
In assay [5], `CC(C)S(=O)(=O)c1ccccc1Nc1nc(Nc2nc(C(=O)N3CCOCC3)cs2)ncc1Cl` displayed a half-inhibitory concentration (IC50) of more than 1000 nM.
As to `CCOC(=O)N1CCc2nc(Nc3ncc(Cl)c(Nc4ccccc4S(=O)(=O)C(C)C)n3)sc2CC1`, in assay [13], the inhibition of growth at 0.2 µM was found to be 5.5%. Moreover, in assay [14], the inhibition of growth at 1 µM was 16.1%.
Molecule `COc1cc(NC(=O)c2csc(Nc3ncc(Cl)c(Nc4ccccc4S(=O)(=O)C(C)C)n3)n2)cc(OC)c1OC` displayed an IC50 in [5] of more than 1000 nM.
`CC(C)S(=O)(=O)c1ccccc1Nc1nc(Nc2nc(C(=O)N3CC4CCC(C3)O4)cs2)ncc1Cl`: the inhibition of growth at 0.2 µM in assay [13] came to 18.4%. The inhibition of growth at 1 µM in assay [14] was 63.4%.
In the same order, the values of `CC(C)S(=O)(=O)c1ccccc1Nc1nc(Nc2nc(C(=O)NCCN3CCOCC3)cs2)ncc1Cl` are 29.5% and 73.6%.
Molecule `CC(C)S(=O)(=O)c1ccccc1Nc1nc(Nc2nc(C(=O)N3CCCCC3)cs2)ncc1Cl` yielded an IC50 in [5] of more than 1000 nM.
The same measure, in the same setting: under `CC(C)S(=O)(=O)c1ccccc1Nc1nc(Nc2nc3c(s2)CNCC3)ncc1Cl` stands more than 1000 nM.
With `CC(C)S(=O)(=O)c1ccccc1Nc1nc(Nc2nc3c(s2)CCN(C)CC3)ncc1Cl`, the inhibition of growth at 0.2 µM in [13] stood at 0.15%. In addition, the inhibition of growth at 1 µM in assay [14] was found to be 67.7%.
In turn, `CC(C)S(=O)(=O)c1ccccc1Nc1nc(Nc2nc(C(=O)O)cs2)ncc1Cl` had an IC50 in [5] of more than 1000 nM.
With `CC(C)S(=O)(=O)c1ccccc1Nc1nc(Nc2nc3c(s2)CCN(C(=O)CO)CC3)ncc1Cl`, the inhibition of growth at 0.2 µM in assay [13] was 3.7%. Also, the inhibition of growth at 1 µM in assay [14] was 80.7%.
Take `CC(C)S(=O)(=O)c1ccccc1Nc1nc(Nc2nc(C(=O)N3CC4(CCNCC4)C3)cs2)ncc1Cl`: the IC50 in assay [5] is more than 1000 nM.
Take `CC(C)S(=O)(=O)c1ccccc1Nc1nc(Nc2nc(C(=O)N3C[C@H]4CN(C)C[C@H]4C3)cs2)ncc1Cl`: in [13], the inhibition of growth at 0.2 µM was -0.1%. Moreover, the inhibition of growth at 1 µM in assay [14] was found to be 61.4%.
Taken in the same sequence, the figures for `CC(C)S(=O)(=O)c1ccccc1Nc1nc(Nc2nc3c(s2)CCN(CC2CCOCC2)CC3)ncc1Cl` were -13.7% and 59.9%.
In turn, `CC(C)S(=O)(=O)c1ccccc1Nc1nc(Nc2nc3c(s2)CN(C)CC3)ncc1Cl` gave an IC50 in assay [5] of more than 1000 nM.
Still for that read-out and setting: under `CCCCOC(=O)c1csc(Nc2ncc(Cl)c(Nc3ccccc3S(=O)(=O)C(C)C)n2)n1` stands more than 1000 nM.
In turn, `CNC(=O)c1csc(Nc2ncc(Cl)c(Nc3ccccc3S(=O)(=O)C(C)C)n2)n1` had an IC50 in [5] of more than 1000 nM.
Still for that read-out and setting: under `COC(=O)c1csc(Nc2ncc(Cl)c(Nc3ccccc3S(=O)(=O)C(C)C)n2)n1` stands more than 1000 nM.

The values above are taken from ChEMBL document CHEMBL3352334, “Design, synthesis and pharmacological evaluation of 2-(thiazol-2-amino)-4-arylaminopyrimidines as potent anaplastic lymphoma kinase (ALK) inhibitors” (Eur J Med Chem, 2014).
